From ChEMBL document CHEMBL1629623, “In vitro activity of the quinolone WCK 771 against recent U.S. hospital and community-acquired Staphylococcus aureus pathogens with various resistance types” (Antimicrob Agents Chemother, 2009)
Activity calls are given as the source filed them.

Tests used:
[1] = tested on: Staphylococcus aureus; test: microbe, parasite or virus in culture; conditions: Staphylococcus aureus, 32, 24 h
Description: Antibacterial activity against vancomycin-susceptible methicillin-resistant Staphylococcus aureus 32 harboring GyrA S84L and GrlA S80Y mutant after 24 hrs by CLSI method

[2] = tested on: Staphylococcus aureus; test: Antibacterial activity against hospital acquired methicillin-resistant Staphylococcus aureus after 24 hrs by CLSI method; assay type: functional
[3] = tested on: Staphylococcus aureus; test: Antibacterial activity against community acquired methicillin-resistant Staphylococcus aureus after 24 hrs by CLSI method; assay type: functional
[4] = Ratio of AUC in human to MIC for Staphylococcus aureus after 24 hrs; assay type: functional
[5] = tested on: Staphylococcus aureus; test: microbe, parasite or virus in culture; conditions: Mu3, 24 h
Description: Antibacterial activity against vancomycin-intermediate Staphylococcus aureus Mu3 harboring GyrA S84L and GrlA S80F mutant after 24 hrs by CLSI method

[6] = tested on: Staphylococcus aureus; test: Antibacterial activity against vancomycin-resistant Staphylococcus aureus VRS1 harboring GyrA S84L and GrlA S80F mutant after 24 hrs by CLSI method; assay type: functional; conditions: VRS1, 24 h
[7] = tested on: Staphylococcus aureus; test: Antibacterial activity against vancomycin-resistant Staphylococcus aureus VRS3 harboring GyrA S84L and GrlA S80F, E84K mutant after 24 hrs by CLSI method; assay type: functional; conditions: VRS3, 24 h
[8] = tested on: Staphylococcus aureus; test: Antibacterial activity against Staphylococcus aureus after 24 hrs by CLSI method; assay type: functional
[9] = tested on: Staphylococcus aureus; test: Antibacterial activity against vancomycin-resistant Staphylococcus aureus VRS4 harboring GyrA S84L and GrlA S80F, E84K mutant after 24 hrs by CLSI method; assay type: functional, organism-based
[10] = tested on: Staphylococcus aureus; test: Antibacterial activity against methicillin-susceptible Staphylococcus aureus after 24 hrs by CLSI method; assay type: functional
[11] = tested on: Staphylococcus aureus; test: Antibacterial activity against vancomycin-resistant Staphylococcus aureus VRS7 harboring GyrA S84L and GrlA S80F mutant after 24 hrs by CLSI method; assay type: functional, organism-based
[12] = tested on: Staphylococcus aureus; test: microbe, parasite or virus in culture; conditions: Staphylococcus aureus, 34, 24 h
Description: Antibacterial activity against vancomycin-susceptible methicillin-resistant Staphylococcus aureus 34 harboring GyrA S84L and GrlA S80F mutant after 24 hrs by CLSI method

[13] = tested on: Staphylococcus aureus; test: Antibacterial activity against quinolone-resistant Staphylococcus aureus after 24 hrs by CLSI method; assay type: functional
[14] = tested on: Staphylococcus aureus; test: Antibacterial activity against vancomycin-resistant Staphylococcus aureus VRS2 harboring GyrA S84L and GrlA S80F mutant after 24 hrs by CLSI method; assay type: functional; conditions: VRS2, 24 h
[15] = AUC in human at 800 mg, iv qd after 24 hrs; assay type: ADME, organism-based; design: dose 800 mg, time < 24 hr, route intravenous; conditions: plasma
[16] = tested on: Staphylococcus aureus; test: Antibacterial activity against vancomycin-resistant Staphylococcus aureus VRS5 harboring GyrA S84L, E88K and GrlA S80Y, E84G mutant after 24 hrs by CLSI method; conditions: VRS5, 24 h
[17] = tested on: Staphylococcus aureus; test: Antibacterial activity against vancomycin-intermediate Staphylococcus aureus after 24 hrs by CLSI method; assay type: functional
[18] = tested on: Staphylococcus aureus; test: Antibacterial activity against vancomycin-intermediate Staphylococcus aureus Mu50 harboring GyrA S84L and GrlA S80F mutant after 24 hrs by CLSI method; assay type: functional; conditions: Mu50, 24 h
[19] = tested on: Staphylococcus aureus; test: Antibacterial activity against vancomycin-resistant Staphylococcus aureus VRS6 harboring GyrA S84L and GrlA S80F, E84G mutant after 24 hrs by CLSI method; assay type: functional; conditions: VRS6, 24 h

C[C@H]1CCc2c(N3CCC(O)CC3)c(F)cc3c(=O)c(C(=O)O)cn1c23.N=C(N)NCCC[C@H](N)C(=O)O
0.5 µg/mL: MIC [1] | MIC50 [2] | MIC90 [3] | MIC [6] | MIC [7] | MIC [12] | MIC50 [13] | MIC [14] | MIC90 [17] | MIC [19]
0.25 µg/mL: MIC90 [10] | MIC50 [17]
58.5: RatioAUC/MIC [4]
390 µg·h/mL: AUC at 24 h [15]
8 µg/mL: MIC [16]
active: Activity [9] | Activity [11]
1 µg/mL: MIC90 [2] | MIC [5] | MIC90 [8] | MIC90 [13] | MIC [18]
0.03 µg/mL: MIC50 [3] | MIC50 [8] | MIC50 [10]

CN[C@H](CC(C)C)C(=O)N[C@H]1C(=O)N[C@@H](CC(N)=O)C(=O)N[C@H]2C(=O)N[C@H]3C(=O)N[C@H](C(=O)N[C@H](C(=O)O)c4cc(O)cc(O)c4-c4cc3ccc4O)[C@H](O)c3ccc(c(Cl)c3)Oc3cc2cc(c3O[C@@H]2O[C@H](CO)[C@@H](O)[C@H](O)[C@H]2O[C@H]2C[C@](C)(N)[C@H](O)[C@H](C)O2)Oc2ccc(cc2Cl)[C@H]1O [VANCOMYCIN]
64 µg/mL: MIC [7] | MIC [16]
8 µg/mL: MIC [18]
128 µg/mL: MIC [6] | MIC [19]
1 µg/mL: MIC50 [2] | MIC50 [3] | MIC90 [3] | MIC50 [8] | MIC90 [8] | MIC50 [10] | MIC90 [10] | MIC50 [13]
4 µg/mL: MIC90 [2] | MIC90 [13] | MIC50 [17] | MIC90 [17]
32 µg/mL: MIC [14]
